Assay results published in patent US9921225B2, “Phenyl glyoxal probes” (The Scripps Research Institute, priority 2012, dated 2018).
Several values for one entry are separate records, joined by “and”; a condition that tells them apart may be missing. Identical values can stand only once. Each block holds one compound with its values, some of them ahead of it.

Assays:
PAD4 = PAD4 (Homo sapiens, UniProt Q9UM07); test: Steady-state kinetic assay of protein citrullination using Rh-PG; assay type: biochemical; conditions: recombinant huApoA1, Rh-PG readout
PAD2 = PAD2 (Homo sapiens, UniProt Q9Y2J8); test: Kinetic characterization of ApoA1 as a PAD substrate using Rh-PG; assay type: biochemical; conditions: recombinant huApoA1, Rh-PG readout
Procedure: (§1) To verify that ApoA1 is the modified 25 kDa protein in the UC samples, anti-ApoA1 Western blotting of Biotin-PG pulldown samples was performed (FIG. 24A). […] To test human ApoA1 as a PAD substrate, recombinant huApoA1 was first treated ±PADs 1-4 and then analyzed with the Rh-PG probe (FIG. 24B). […] PADs 2, 3, and 4 also modified ApoA1, albeit to a lesser extent. To further evaluate citrullination of ApoA1, the steady state kinetic parameters were determined using Rh-PG.

PAD3 = molecular target: T1, PAD3 (Homo sapiens, UniProt Q9ULW8); test: as above; assay type: biochemical; conditions: recombinant huApoA1, Rh-PG readout
T1 sequence (Q9ULW8 1-664): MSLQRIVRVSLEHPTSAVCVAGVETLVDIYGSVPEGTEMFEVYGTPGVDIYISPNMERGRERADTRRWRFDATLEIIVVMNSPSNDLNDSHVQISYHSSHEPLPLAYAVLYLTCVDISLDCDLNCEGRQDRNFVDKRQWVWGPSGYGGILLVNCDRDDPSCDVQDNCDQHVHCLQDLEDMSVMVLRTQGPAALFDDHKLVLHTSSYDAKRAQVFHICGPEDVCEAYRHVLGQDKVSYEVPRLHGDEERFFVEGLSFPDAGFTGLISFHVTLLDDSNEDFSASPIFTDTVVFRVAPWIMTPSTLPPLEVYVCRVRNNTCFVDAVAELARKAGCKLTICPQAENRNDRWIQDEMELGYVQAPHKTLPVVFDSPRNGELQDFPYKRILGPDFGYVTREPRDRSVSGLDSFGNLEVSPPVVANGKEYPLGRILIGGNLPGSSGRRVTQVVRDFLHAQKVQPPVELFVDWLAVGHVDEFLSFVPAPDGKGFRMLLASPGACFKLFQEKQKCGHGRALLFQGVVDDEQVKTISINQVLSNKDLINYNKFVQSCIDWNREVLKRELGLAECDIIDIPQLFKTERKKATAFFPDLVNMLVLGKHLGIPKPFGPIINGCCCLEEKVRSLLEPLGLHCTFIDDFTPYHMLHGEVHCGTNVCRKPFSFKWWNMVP
Procedure: as §1

autodeiminated PAD4 [1] = molecular target: T2, autodeiminated PAD4 (Homo sapiens, UniProt Q9UM07); test: Biotin-PG limit of detection, streptavidin-HRP blot; conditions: Example 1; 20% TCA, 0.1 mM Biotin-PG, 37° C., 3 h
Procedure: Biotin-PG Pulldown and Labeling—It was next set out to determine the utility of the biotin-tagged PG probe, Biotin-PG (FIG. 2), as a tool for labeling, isolating, and enriching citrullinated proteins. As with the Rh-PG probe, the LOD of this probe was first determined with respect to autodeiminated PAD4. For these studies, autodeiminated PAD4, prepared as described above, was diluted into 50 mM HEPES pH 8.0 to final concentrations of 1.6 μM, 0.16 μM, 16 nM, 1.6 nM, and 0.16 nM. These samples were then incubated at 37° C. for 3 h with 20% TCA and 0.1 mM Biotin-PG. Solutions were quenched, cooled on ice for 30 min, and centrifuged at 14,000 rpm for 15 min at 4° C. The supernatant was removed and samples were washed with cold acetone and dried at 100° C. for 5 min. Proteins were resuspended in 25 μL of 50 mM HEPES and boiled with 6×SDS loading dye and various amounts of protein (i.e., 1,000, 100, 10, 1, and 0.1 ng) loaded onto a 12% SDS-PAGE gel. Gel electrophoresis was performed at 200 V for 50 min and proteins were subsequently electrotransferred to nitrocellulose (tris-glycine buffer; 80 V; 70 min) and the membrane blocked with 5% BSA in PBS for 1 h at rt. After washing 2× with PBS (10 min), the blot was treated with streptavidin-HRP (1:20,000) in 5% BSA in PBS for 1 h at rt. […]

autodeiminated PAD4 [2] = molecular target: T2, autodeiminated PAD4; test: Rh-PG limit of detection, SDS-PAGE and fluorescent imaging; conditions: Example 1; 20% TCA, 0.1 mM Rh-PG, 37° C., 3 h; LOD defined as three times the noise
Procedure: The sensitivity of the probe was analyzed next (FIGS. 5A, 5B). Autodeiminated PAD4, prepared as described above, was diluted into 50 mM HEPES pH 8.0 to final concentrations of 1.6 μM, 0.16 μM, 16 nM, 1.6 nM, and 0.16 nM. To one set of samples was added 0.1 mM Rh-PG, and to a second set, 20% TCA and 0.1 mM Rh-PG. The samples were then incubated at 37° C. for 3 h. To TCA precipitate autodeiminated PAD4, the acidic solutions were cooled on ice for 30 min and then centrifuged at 14,000 rpm for 15 min at 4° C. The supernatant was removed and samples were washed with cold acetone and dried at 100° C. for 5 min. Proteins were resuspended in 25 μL of 50 mM HEPES. Both basic and acidic samples were then boiled with 6×SDS loading dye and various amounts of protein (i.e., 1000, 100, 10, 1, and 0.1 ng) loaded onto a 12% SDS-PAGE gel. Gel electrophoresis was performed at 170 V for 60 min and the gels analyzed on a Typhoon Imager (Ex. 532 nm; Em. 580 nm) (FIGS. 5A, 5B). […]
Rh-PG Limit of Detection: Citrullinated H3 and autodeiminated PAD4, prepared as described above, were diluted into 50 mM HEPES pH 7.6 to final concentrations of (2.2 μM, 0.22 μM, 22 nM, 2.2 nM, and 0.22 nM H3) and (0.16 μM, 16 nM, 1.6 nM, 0.16 nM, and 0.016 nM PAD4). […] Gel electrophoresis was performed at 170 V for 50 min and the gels analyzed on a Typhoon Imager (Ex. 532 nm; Em. 580 nm).

[3] = tested on: serum protein citrullination; test: Rh-PG analysis of murine ulcerative colitis serum samples; assay type: in vivo, mouse; conditions: serum of DSS mice treated with Cl-amidine
Procedure: Rh-PG Analysis of Murine Ulcerative Colitis Serum Samples: Serum samples Cl-amidine efficacy in a mouse model of ulcerative colitis were obtained and analyzed by the Rh-PG method. Briefly, the protein concentration of serum samples was first obtained using a standard Lowry assay. A sample (2 mg/mL; 30 μL) of each serum sample (i.e., 14 total; 7 DSS; 7 DSS+Cl-amidine) was prepared in 50 mM HEPES and treated with 20% TCA and 0.1 mM Rh-PG for 30 min at 37° C. Samples were then quenched with citrulline, cooled, centrifuged, washed, and dried. After resuspending in 50 mM HEPES, samples were separated by SDS-PAGE (12%; 170 V; 50 min) and imaged on a Typhoon Imager (Ex. 532 nm; Em. 580 nm). Images were analyzed using ImageQuant 5.2 and correlation coefficients were determined using Microsoft Excel. These experiments were run in duplicate on different days. Subsequent statistical analysis was done using STATISTICA, utilizing two-tailed, independent student's t-tests to determine significance (i.e., P-value) between diseased and Cl-amidine treated samples. Correlation coefficients were calculated in Microsoft Excel, utilizing a table of critical values of Pearson's r with a degree of freedom value of 12 (n−2) to determine the significance (i.e., P-value) of the correlation between the fluorescence of a particular protein and a disease score.

[4] = tested on: DSS induced ulcerative colitis; conditions: cited from earlier work
[5] = group average, Group 8 WT, 2% DSS + Cl-Amidine @ 75 mg/kg
[6] = individual mice, Group 8 WT, 2% DSS + Cl-Amidine @ 75 mg/kg

T2 sequence (Q9UM07 whole entry): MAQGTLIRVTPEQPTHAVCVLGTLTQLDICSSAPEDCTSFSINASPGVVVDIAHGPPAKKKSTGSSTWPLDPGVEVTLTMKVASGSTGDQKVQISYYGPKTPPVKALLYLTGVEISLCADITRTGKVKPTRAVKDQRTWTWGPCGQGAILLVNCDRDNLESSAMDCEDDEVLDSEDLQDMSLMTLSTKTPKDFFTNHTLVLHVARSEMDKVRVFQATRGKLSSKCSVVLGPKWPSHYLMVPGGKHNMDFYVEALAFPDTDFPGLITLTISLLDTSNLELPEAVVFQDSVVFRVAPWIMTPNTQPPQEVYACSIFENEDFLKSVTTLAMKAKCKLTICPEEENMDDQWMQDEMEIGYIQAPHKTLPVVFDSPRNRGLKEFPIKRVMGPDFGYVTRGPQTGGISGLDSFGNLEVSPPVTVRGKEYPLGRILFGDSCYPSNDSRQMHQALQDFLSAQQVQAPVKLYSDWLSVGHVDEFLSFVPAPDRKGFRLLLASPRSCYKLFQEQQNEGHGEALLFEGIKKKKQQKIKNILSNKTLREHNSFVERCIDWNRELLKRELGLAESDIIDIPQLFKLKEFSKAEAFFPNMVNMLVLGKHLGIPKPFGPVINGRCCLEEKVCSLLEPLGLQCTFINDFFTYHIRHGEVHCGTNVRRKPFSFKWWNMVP
Sequence of PAD4 (Q9UM07 whole entry, species assumed): as the sequence (Q9UM07 whole entry) above
Sequence of PAD2 (Q9Y2J8 whole entry, species assumed): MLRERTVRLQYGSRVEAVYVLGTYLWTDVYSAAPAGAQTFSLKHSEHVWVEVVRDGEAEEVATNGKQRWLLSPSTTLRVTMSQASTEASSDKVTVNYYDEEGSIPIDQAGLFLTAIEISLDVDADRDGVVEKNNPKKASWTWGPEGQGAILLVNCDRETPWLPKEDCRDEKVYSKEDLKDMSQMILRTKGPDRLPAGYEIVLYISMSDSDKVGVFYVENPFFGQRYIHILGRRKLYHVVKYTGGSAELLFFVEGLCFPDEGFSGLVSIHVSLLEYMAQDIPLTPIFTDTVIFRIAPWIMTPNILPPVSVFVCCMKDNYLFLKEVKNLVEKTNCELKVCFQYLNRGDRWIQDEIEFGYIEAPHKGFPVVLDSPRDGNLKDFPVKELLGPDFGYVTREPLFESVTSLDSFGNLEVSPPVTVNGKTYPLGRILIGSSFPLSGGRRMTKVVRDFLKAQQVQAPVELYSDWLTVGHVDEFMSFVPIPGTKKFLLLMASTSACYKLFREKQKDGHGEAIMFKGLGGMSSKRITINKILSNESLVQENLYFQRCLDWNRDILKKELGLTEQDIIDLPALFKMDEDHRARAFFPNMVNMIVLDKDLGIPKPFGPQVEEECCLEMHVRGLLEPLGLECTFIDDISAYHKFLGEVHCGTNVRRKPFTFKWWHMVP

substrate quality for PAD4 (PAD4): modest substrate | substrate quality for PAD2 (PAD2): modest substrate | substrate quality for PAD3 (PAD3): modest substrate
Compound: ApoA1: apolipoprotein-A1, a key component of High Density Lipoprotein; recombinant huApoA1 tested as PAD substrate

limit of detection of Biotin-PG probe, autodeiminated PAD4 (autodeiminated PAD4 [1]): 100 ng
Compound: O=CC(=O)c1cccc(NC(=O)CCn2cc(CCCC(=O)NCCNC(=O)CCCC[C@@H]3SC[C@@H]4NC(=O)N[C@@H]43)nn2)c1 [Biotin-PG]

limit of detection (LOD) of Rh-PG probe labeling of autodeiminated PAD4 (autodeiminated PAD4 [2]): 1 ng
Compound: CC(C(=O)Nc1cccc(C(=O)C=O)c1)n1cc(CNC(=O)c2ccc3c(c2)C2(OC3=O)c3ccc(N(C)C)cc3Oc3cc(N(C)C)ccc32)nn1 (stereo not shown) [Rh-PG, N-(3-Glyoxyl)phenylamino)propionyl)-1H-1,2,3-triazol-4-yl)methyl-5(6)-carboxamidotetramethyl rhodamine hydrate]

Compound: NC(=O)[C@H](CCCN=C(N)CCl)NC(=O)c1ccccc1 [Cl-amidine]
effect on global citrullination (whole lane) [3]: significantly decreases global citrullination | disease severity ([4]; DSS mouse model of ulcerative colitis, previous study (Chumanevich 2011)): reduces disease severity | Colon Length, Average [4, 5]: 8.1 cm | Inflam. Score, Average [4, 5]: 14.6 | Lym, Average [4, 5]: 8.2 m/mm^3 | WBC, Average [4, 5]: 13.7 m/mm^3 | Weight (end), Average [4, 5]: 23.3 g | Weight Diff., Average [4, 5]: 0.7 g | Colon Length [4, 6]: 7.6 cm (2×) and 8.1 cm and 8.2 cm and 8.6 cm and 8 cm and 8.4 cm | Inflam. Score [4, 6]: 14 (2×) and 24 and 12 (2×) and 10 and 16 | Lym [4, 6]: 5.68 m/mm^3 and 3.87 m/mm^3 and 11.35 m/mm^3 and 9.4 m/mm^3 and 6.87 m/mm^3 and 9.35 m/mm^3 and 10.83 m/mm^3 | WBC [4, 6]: 9.75 m/mm^3 and 9.08 m/mm^3 and 18.14 m/mm^3 and 15.12 m/mm^3 and 11.46 m/mm^3 and 15.91 m/mm^3 and 16.41 m/mm^3 | Weight Diff. [4, 6]: 0.8 g (2×) and 0.15 g and 1.3 g and 0.5 g and 0.7 g and 0.3 g | Weight (end) ([4]; individual mice, Group 8 WT, 2% DSS + Cl-Amidine @ 75 mg/kg, in g): 23.4 and 22.05 and 22.7 and 24.1 and 25 and 22.5 and 23.6
